From patent US20260167632A1, “NICOTINAMIDE DERIVATIVES FOR USE IN TREATING DISORDERS ASSOCIATED WITH KCNK13 ACTIVITY” (Cerevance, Inc., priority 2022, published 2026)

Target: T1, human KCNK13 (Homo sapiens, UniProt Q9HB14)
T1 construct: expressed in transfected cells
T1 sequence (Q9HB14 1-408): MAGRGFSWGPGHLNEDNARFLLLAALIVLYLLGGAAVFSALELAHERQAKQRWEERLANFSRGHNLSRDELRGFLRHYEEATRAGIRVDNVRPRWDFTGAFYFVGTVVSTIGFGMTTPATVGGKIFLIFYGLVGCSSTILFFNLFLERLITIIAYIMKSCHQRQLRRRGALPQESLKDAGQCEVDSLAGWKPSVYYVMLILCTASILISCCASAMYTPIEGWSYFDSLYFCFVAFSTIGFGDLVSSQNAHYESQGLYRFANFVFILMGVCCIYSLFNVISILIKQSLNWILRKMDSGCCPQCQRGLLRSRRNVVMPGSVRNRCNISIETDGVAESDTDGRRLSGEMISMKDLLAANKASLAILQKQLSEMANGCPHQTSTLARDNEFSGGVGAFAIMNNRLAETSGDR
Experiment: KCNK13 antagonist activity, thallium flux FLIPR assay in HEK 293 cells stably expressing human KCNK13
Format: cell-based
Settings: HEK 293 cells stably expressing human KCNK13, Tl+ sensitive dye, compound 15 min before thallium sulfate, ten point curves; read-out: hKCNK13 IC50
Experimental: 4. Biological Efficacy of Compounds of the Invention
KCNK13 antagonist activity was determined by measuring changes in intracellular Thallium (Tl^+) concentrations using a Tl^+ sensitive fluorescent dye. The changes in fluorescent signal were monitored by Fluorescent Imaging Plate Reader (FLIPR™) technology available from Molecular Devices, LLC, US. KCNK13 mediated increases in intracellular Tl^+ concentration were readily detected by addition of a thallium sulfate Stimulus. 24 hours prior to the assay, human embryonic kidney 293 cells (HEK 293 cells) stably expressing human KCNK13 were seeded in cell culture medium in PDL coated black, clear-bottom 384-well plates (commercially available from Corning Inc., 356663) and grown overnight at 37° C., […]. On the day of the assay, cell culture media was removed and cells were loaded with potassium dye (commercially sold by Molecular Devices, LLC, US, R8222) for 1 hour at room temperature in the dark. Test compounds (at 10 point half log concentration response curves from 100 µM) were added to cells for 15 minutes prior to the addition of thallium sulfate to all wells. The IC50 values were determined from ten point concentration response curves. Curves were generated using the average of two wells for each data point.

Row | SMILES | IC50 [nM]
1 | CN(C(=O)c1cc(F)cnc1OC(F)F)C1COc2c(F)cccc21 (centres unmarked) [Example 75, 2-(difluoromethoxy)-5-fluoro-N-(7-fluoro-2,3-dihydrobenzofuran-3-yl)-N-methylnicotinamide] | ≤ 500
2 | CN(C(=O)c1cc(Cl)cnc1OC(F)F)C1COc2cc(F)ccc21 (centres unmarked) [Example 77, 5-chloro-2-(difluoromethoxy)-N-(6-fluoro-2,3-dihydrobenzofuran-3-yl)-N-methylnicotinamide] | ≤ 500
3 | CC(c1cccc(F)c1)N(C)C(=O)c1cc(F)cnc1OC(F)F (centres unmarked) [Example 83, 2-(difluoromethoxy)-5-fluoro-N-(1-(3-fluorophenyl)ethyl)-N-methylnicotinamide] | ≤ 100
4 | CN(C(=O)c1cc(F)cnc1OC(F)F)C1COc2ccccc21 (centres unmarked) [Example 85, 2-(difluoromethoxy)-N-(2,3-dihydrobenzofuran-3-yl)-5-fluoro-N-methylnicotinamide] | ≤ 200
5 | CN(C(=O)c1cc(Cl)cnc1OC(F)F)C1COc2ccccc21 (centres unmarked) [Example 91, 5-chloro-2-(difluoromethoxy)-N-(2,3-dihydrobenzofuran-3-yl)-N-methylnicotinamide] | ≤ 500
6 | CN(C(=O)c1cc(Cl)cnc1OC(F)F)C1COc2c(F)cccc21 (centres unmarked) [Example 92, 5-chloro-2-(difluoromethoxy)-N-(7-fluoro-2,3-dihydrobenzofuran-3-yl)-N-methylnicotinamide] | ≤ 500
7 | CN(Cc1cccc(F)c1F)C(=O)c1cc(F)cnc1OC(F)F [Example 93, N-(2,3-difluorobenzyl)-2-(difluoromethoxy)-5-fluoro-N-methylnicotinamide] | ≤ 100
8 | CN(Cc1ccc(F)cc1F)C(=O)c1cc(F)cnc1OC(F)F [Example 94, N-(2,4-difluorobenzyl)-2-(difluoromethoxy)-5-fluoro-N-methylnicotinamide] | ≤ 100
9 | CN(Cc1cccc(F)c1)C(=O)c1cc(F)cnc1OC(F)F [Example 95, 2-(difluoromethoxy)-5-fluoro-N-(3-fluorobenzyl)-N-methylnicotinamide] | ≤ 100
10 | CN(Cc1cccc(F)c1)C(=O)c1cc(C(F)(F)F)cnc1OC(F)F [Example 96, 2-(difluoromethoxy)-N-(3-fluorobenzyl)-N-methyl-5-(trifluoromethyl)nicotinamide] | ≤ 500
11 | CN(Cc1cccc(F)c1)C(=O)c1cc(C2CCC2)cnc1OC(F)F [Example 97, 5-cyclobutyl-2-(difluoromethoxy)-N-(3-fluorobenzyl)-N-methylnicotinamide] | ≤ 1000
12 | CN(Cc1cccc(OC(F)F)c1)C(=O)c1cc(Cl)cnc1OC(F)F [Example 98, 5-chloro-2-(difluoromethoxy)-N-(3-(difluoromethoxy)benzyl)-N-methylnicotinamide] | ≤ 200
13 | CN(Cc1cccc(OC(F)(F)F)c1)C(=O)c1cc(Cl)cnc1OC(F)F [Example 99, 5-chloro-2-(difluoromethoxy)-N-methyl-N-(3-(trifluoromethoxy)benzyl)nicotinamide] | ≤ 1000
14 | CN(Cc1cc(F)cc(F)c1)S(=O)(=O)c1cc(F)cnc1OC(F)F [Example 103, N-(3,5-difluorobenzyl)-2-(difluoromethoxy)-5-fluoro-N-methylpyridine-3-sulfonamide] | ≤ 200
15 | C[C@H](c1cccc(F)c1)N(C)S(=O)(=O)c1cc(F)cnc1OC(F)F [Example 104, (R)-2-(difluoromethoxy)-5-fluoro-N-(i-(3-fluorophenyl)ethyl)-N-methylpyridine-3-sulfonamide] | ≤ 1000
16 | C[C@@H](c1cccc(F)c1)N(C)S(=O)(=O)c1cc(F)cnc1OC(F)F [Example 105, (S)-2-(difluoromethoxy)-5-fluoro-N-(1-(3-fluorophenyl)ethyl)-N-methylpyridine-3-sulfonamide] | ≤ 1000
17 | CN(Cc1cccc(C#N)c1)S(=O)(=O)c1cc(F)cnc1OC(F)F [Example 106, N-(3-cyanobenzyl)-2-(difluoromethoxy)-5-fluoro-N-methylpyridine-3-sulfonamide] | ≤ 500
18 | CN(Cc1cccc(F)c1F)S(=O)(=O)c1cc(F)cnc1OC(F)F [Example 107, N-(2,3-difluorobenzyl)-2-(difluoromethoxy)-5-fluoro-N-methylpyridine-3-sulfonamide] | ≤ 100
19 | CN(Cc1cccc(Cl)c1)S(=O)(=O)c1cc(F)cnc1OC(F)F [Example 108, N-(3-chlorobenzyl)-2-(difluoromethoxy)-5-fluoro-N-methylpyridine-3-sulfonamide] | ≤ 200
20 | CCN(Cc1cccc(F)c1)S(=O)(=O)c1cc(F)cnc1OC(F)F [Example 109, 2-(difluoromethoxy)-N-ethyl-5-fluoro-N-(3-fluorobenzyl)pyridine-3-sulfonamide] | ≤ 1000
21 | O=S(=O)(c1cc(F)cnc1OC(F)F)N1CCc2ccccc2C1 [Example 110, 2-((2-(difluoromethoxy)-5-fluoropyridin-3-yl)sulfonyl)-1,2,3,4-tetrahydroisoquinoline] | ≤ 100

Results, then the molecule that gave them:

Row | IC50 [nM] | SMILES
22 | ≤ 200 | Cc1cc(F)cc(CN(C)C(=O)c2cc(Cl)cnc2OC(F)F)c1 [Example 76, 5-chloro-2-(difluoromethoxy)-N-(3-fluoro-5-methylbenzyl)-N-methylnicotinamide]
23 | ≤ 50 | CN(Cc1cc(F)cc(F)c1)C(=O)c1cc(Cl)cnc1OC(F)F [Example 78, 5-chloro-N-(3,5-difluorobenzyl)-2-(difluoromethoxy)-N-methylnicotinamide]
24 | ≤ 200 | CN(Cc1cc(F)cc(Cl)c1)C(=O)c1cc(Cl)cnc1OC(F)F [Example 79, 5-chloro-N-(3-chloro-5-fluorobenzyl)-2-(difluoromethoxy)-N-methylnicotinamide]
25 | ≤ 100 | Cc1cccc(CN(C)C(=O)c2cc(Cl)cnc2OC(F)F)c1 [Example 80, 5-chloro-2-(difluoromethoxy)-N-methyl-N-(3-methylbenzyl)nicotinamide]
26 | ≤ 200 | COc1cccc(CN(C)C(=O)c2cc(Cl)cnc2OC(F)F)c1 [Example 81, 5-chloro-2-(difluoromethoxy)-N-(3-methoxybenzyl)-N-methylnicotinamide]
27 | ≤ 500 | CN(Cc1cccc(C(F)(F)F)c1)C(=O)c1cc(Cl)cnc1OC(F)F [Example 82, 5-chloro-2-(difluoromethoxy)-N-methyl-N-(3-(trifluoromethyl)benzyl)nicotinamide]
28 | ≤ 100 | CN(Cc1cccc(Cl)c1)C(=O)c1cc(Cl)cnc1OC(F)F [Example 84, 5-chloro-N-(3-chlorobenzyl)-2-(difluoromethoxy)-N-methylnicotinamide]
29 | ≤ 500 | CN(Cc1cccc(C#N)c1)C(=O)c1cc(Cl)cnc1OC(F)F [Example 90, 5-chloro-N-(3-cyanobenzyl)-2-(difluoromethoxy)-N-methylnicotinamide]
30 | ≤ 100 | CN(Cc1ccc(F)cc1F)C(=O)c1cc(Cl)cnc1OC(F)F [Example 100, 5-chloro-N-(2,4-difluorobenzyl)-2-(difluoromethoxy)-N-methylnicotinamide]
31 | ≤ 100 | CN(Cc1cccc(F)c1)C(=O)c1cc(Cl)cnc1OC(F)F [Example 101, 5-chloro-2-(difluoromethoxy)-N-(3-fluorobenzyl)-N-methylnicotinamide]
32 | ≤ 100 | CN(Cc1cccc(F)c1F)C(=O)c1cc(Cl)cnc1OC(F)F [Example 102, 5-chloro-N-(2,3-difluorobenzyl)-2-(difluoromethoxy)-N-methylnicotinamide]
